Measured values published in patent publication US9993492B2, “Lysophospholipids and lysophospholipid analogues against honeybee brood diseases” (University of Graz, priority 2013, dated 2018).
Where two headings read alike, the source gives them in different places.

Columns and labels:
[1] = tested on: Melissococcus plutonius; assay: Antimicrobial assay in liquid Basal Medium against Melissococcus plutonius (MIC); format: cell-based; settings: Melissococcus plutonius
Experimental: M. pl. was cultured in liquid Basal Medium (BM) for 4 days at 35° C. and from here serial dilutions were carried out to estimate CFU/ml by plating onto BM agar plates. 5 days later CFU were count and concentration was estimated to be 3.46*10^6 CFU/ml. For the antimicrobial assay, an inoculum of 50 μl of the liquid culture is added to 1 mL of BM liquid medium. A set of different substances were tested in different concentrations (2, 5 and 10 ppm) in order to find out their inhibitory effect against M. pl growth. For substances tested, concentration applied and results see table 1.2. Three replicates per substance were included in the experiment. 5 days after the experiment was started OE (optical extinction) was measured at 600 nm.

[2] = tested on: honeybee larvae; format: in vivo; settings: LPC 10 μg/larva added on day 1, Nlarvae 192
Experimental: First instar larvae were transferred into plastic queen cups and fed the following diets: On the first day 10 μL of diet containing 6% glucose, 6% fructose, 1% yeast extract and 50% royal jelly were fed. Test substances (1-O-oleoyl-sn-glycero-3-phosphocholine (oleoyl-LPC), stearic acid, lysophosphatidylinositol and linoleic acid) were added to the first diet in amounts of 0.5 to 10 μg/larvae. For infection with spores of Paenibacillus larvae, larvae were grafted into 5 μL of diet containing test substances and subsequently 5 μL of diet with about 50 added Pl spores were given. Larvae were not fed on the second day to assure the consumption of the given diet. On the third day 20 μL of diet containing 7.5% glucose, 7.5% fructose, 1.5% yeast extract and 50% royal jelly were fed. Amounts of 30, 40 and 60 μL of diet composed of 9% glucose, 9% fructose, 2% yeast extract and 50% royal jelly were fed on the 4th, 5th and 6th day (method modified after Aupinel et al. [Aupinel et al. 2005. Bull Insectol 58:107-111]. Larvae were incubated at 34.5° C. and 95% relative humidity which was reduced to 80% on day 7. The mortality was checked daily for the first 7 days and when individuals emerged from queen cups at day 18 after the transfer into cups. To reduce the time for sporulation of Pl in the lab for security reasons, infection tests with Pl spores were stopped at day 7 with some experiments extend to day 12.
Larvae were fed according to a slightly modified rearing method of Aupinel et al., (2005). Larvae were fed for 6 days with different amounts of diets which always contained 50% of an aqueous solution (A, B, C) and 50% royal jelly (w/w). The solutions consisted of yeast extract (A=2%, B=3%, C=4%), glucose and fructose (A=12%, B=15%, C=18% each). 50 g portions of royal jelly (purchased from the Styrian school of beekeepers) were freeze stored at −20° C. Once a day all components of the needed diet were mixed freshly, warmed and fed to the larvae with a micro-pipette. On day 1 and 2 each larva was fed with 10 μL of diet A, on day three with 20 μL of diet B, on day four (30 μL), five (40 μL) and six (50 μL) with diet C. This way, each larva was supported with a total amount of 160 μL of food. The test compounds (see Table 4) were added each at the respective concentration on day 1, i.e. stearic acid (10 μg/larva), lysophosphatidylinositol (5 μg/larva), linoleic acid (12 μg/larva) and oleyol-LPC (10 μg/larva). Each larva was checked for its state of health under the binocular before feeding. A larva was defined healthy when movements of spiracles could be observed and it was shiny and plump. Cups with dead larvae were removed from the plate to prevent infections. To avoid microbial contamination, feeding took place under a laminar flow. Larvae were incubated at 34.5° C. and 90% RH. The mortality rates of the larvae are given below in table 4.1.

Q: What does the source list for `CCCCCCCC/C=C\CCCCCCCC(=O)OC[C@@H](O)COP(=O)([O-])OCC[N+](C)(C)C` [1-O-oleoyl-sn-glycero-3-phosphocholine]?
A: MIC ([1]; 120 h, M. pl. in BM liquid medium, OE at 600 nm after 5 days, read-out: MIC): > 3.8 µM; MIC ([1]; 120 h, M. pl. in BM liquid medium, OE at 600 nm after 5 days, read-out: MIC (ppm)): 2 µg/mL; MIC ([1]; read-out: in vitro M. pl. inhibitory activity, MIC): 2.5 µg/mL; Ndead larvae day 1 [2]: 0; Ndead larvae day 2 [2]: 7; Ndead larvae day 3 [2]: 1; Ndead larvae day 4 [2]: 1; Ndead larvae day 5 [2]: 0; Ndead larvae day 6 [2]: 0; Ndead larvae day 7 [2]: 4; Ndead larvae total ([2]; days 1-7): 13
